Several values for one entry are separate records, joined by “and”; a condition that tells them apart may be missing. Equal values may be shown once. Inconclusive results and toxic doses are left out. Peptide text beside a SMILES is read from it. * marks the point of attachment. Cbz = O=C(OCc1ccccc1)*
System: P388 leukemia ip, CD2F1 mice, survival T/C
Assay: NCI In Vivo Anticancer Drug Screen. Data for tumor model P388 Leukemia (intraperitoneal) in CD2F1 (CDF1) mice
Settings: endpoint: median survival time, higher = longer survival
Method in brief: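 Mice carrying the transplanted tumor received test compound or vehicle. Survival was recorded in each group, and the value is the treated-group measurement divided by that of the vehicle-treated control group.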

[1] = dose: 50.0 mg/kg/injection, schedule: Q01DX005 (ip), vehicle: Klucel (hydroxypropylcellulose) (HPC)
[2] = dose: 100.0 mg/kg/injection, schedule: Q01DX005 (ip), vehicle: Klucel (hydroxypropylcellulose) (HPC)
[3] = dose: 200.0 mg/kg/injection, schedule: Q01DX005 (ip), vehicle: Klucel (hydroxypropylcellulose) (HPC)
[4] = dose: 100.0 mg/kg/injection, schedule: Q01DX001 (ip), vehicle: saline with Tween-80
[5] = dose: 200.0 mg/kg/injection, schedule: Q01DX001 (ip), vehicle: saline with Tween-80
[6] = dose: 400.0 mg/kg/injection, schedule: Q01DX001 (ip), vehicle: saline with Tween-80
[7] = dose: 50.0 mg/kg/injection, schedule: Q01DX005 (ip), vehicle: saline with Tween-80
[8] = dose: 100.0 mg/kg/injection, schedule: Q01DX005 (ip), vehicle: saline with Tween-80
[9] = dose: 200.0 mg/kg/injection, schedule: Q01DX005 (ip), vehicle: saline with Tween-80
[10] = dose: 6.25 mg/kg/injection, schedule: Q01DX009 (ip), vehicle: water
[11] = dose: 12.5 mg/kg/injection, schedule: Q01DX009 (ip), vehicle: water
[12] = dose: 120.0 mg/kg/injection, schedule: Q01DX005 (ip), vehicle: saline with Tween-80
[13] = dose: 240.0 mg/kg/injection, schedule: Q01DX005 (ip), vehicle: saline with Tween-80
[14] = dose: 100.0 mg/kg/injection, schedule: Q04DX002 (ip), vehicle: saline with Tween-80
[15] = dose: 200.0 mg/kg/injection, schedule: Q04DX002 (ip), vehicle: saline with Tween-80
[16] = dose: 400.0 mg/kg/injection, schedule: Q04DX002 (ip), vehicle: saline with Tween-80
[17] = dose: 60.0 mg/kg/injection, schedule: Q01DX005 (ip), vehicle: saline with Tween-80
[18] = dose: 50.0 mg/kg/injection, schedule: Q01DX009 (ip), vehicle: saline with Tween-80
[19] = dose: 100.0 mg/kg/injection, schedule: Q01DX009 (ip), vehicle: saline with Tween-80
[20] = dose: 200.0 mg/kg/injection, schedule: Q01DX009 (ip), vehicle: saline with Tween-80

CCOC(=O)CCC(NC(=O)C(CCC(=O)OCC)NC(=O)OCc1ccccc1)C(=O)O (stereo not drawn) (tested in a mixture with another compound) (Cbz-Glu(OEt)-Glu(OEt)-OH; configuration not given here)
T/C [1]: 100 % of control | T/C [2]: 100 % of control | T/C [3]: 100 % of control

CN1CCN(CCCN2c3ccccc3Sc3cc(N4c5ccccc5Sc5ccc(C(F)(F)F)cc54)c(C(F)(F)F)cc32)CC1
T/C (dose: 100.0 mg/kg/injection, schedule: Q04DX003 (ip), vehicle: Klucel (hydroxypropylcellulose) (HPC)): 95 % of control | T/C (dose: 200.0 mg/kg/injection, schedule: Q04DX003 (ip), vehicle: Klucel (hydroxypropylcellulose) (HPC)): 95 % of control | T/C (dose: 400.0 mg/kg/injection, schedule: Q04DX003 (ip), vehicle: Klucel (hydroxypropylcellulose) (HPC)): 107 % of control

CC1(C)CN2C(c3ccccc3)=NN(c3ccccc3)C2(C)C1 (stereo not drawn)
T/C [4]: 98 % of control | T/C [5]: 99 % of control | T/C [6]: 100 % of control

COC(=O)C1=C(C)NC(C)=C(C(=O)OC)C1c1cc2ccccc2nc1Cl
T/C [7]: 92 % of control | T/C [8]: 88 % of control | T/C [9]: 92 % of control

COc1cccc2c1C(=O)c1c(O)c3c(c(O)c1C2=O)CC(O)(/C(C)=N/NC(=O)C(=O)N/N=C(\C)C1(O)Cc2c(O)c4c(c(O)c2C(OC2CC(N)C(O)C(C)O2)C1)C(=O)c1c(OC)cccc1C4=O)CC3OC1CC(N)C(O)C(C)O1 (stereo not drawn)
T/C (dose: 1.56 mg/kg/injection, schedule: Q01DX009 (ip), vehicle: water): 163 % of control and 166 % of control | T/C (dose: 3.13 mg/kg/injection, schedule: Q01DX009 (ip), vehicle: water): 180 % of control and 182 % of control | T/C [10]: 184 % of control and 219 % of control | T/C [11]: 88 % of control and 94 % of control

O=C(NN1C(=O)CSC1c1ccc(Cl)cc1Cl)c1ccncc1 (stereo not drawn)
T/C (dose: 25.0 mg/kg/injection, schedule: Q01DX005 (ip), vehicle: saline with Tween-80): 101 % of control | T/C [7]: 98 % of control | T/C [8]: 93 % of control | T/C [12]: 100 % of control | T/C [13]: 90 % of control

C=C/C(C)=C\CC/C(C)=C/c1cc(C(=O)O)co1
T/C (dose: 4.0 mg/kg/injection, schedule: Q01DX009 (ip), vehicle: Klucel (hydroxypropylcellulose) (HPC)): 104 % of control | T/C (dose: 8.0 mg/kg/injection, schedule: Q01DX009 (ip), vehicle: Klucel (hydroxypropylcellulose) (HPC)): 100 % of control | T/C (dose: 16.0 mg/kg/injection, schedule: Q01DX009 (ip), vehicle: Klucel (hydroxypropylcellulose) (HPC)): 99 % of control | T/C (dose: 32.0 mg/kg/injection, schedule: Q01DX009 (ip), vehicle: Klucel (hydroxypropylcellulose) (HPC)): 100 % of control

CC(=O)Oc1c2occc2cc2ccc(=O)oc12
T/C [7]: 99 % of control | T/C [8]: 98 % of control | T/C [9]: 100 % of control

COc1cc(NCC(O)CN(CC(C)C)C2CCCC2)c2ncccc2c1 (stereo not drawn)
T/C (dose: 12.5 mg/kg/injection, schedule: Q01DX005 (ip), vehicle: saline): 100 % of control | T/C (dose: 25.0 mg/kg/injection, schedule: Q01DX005 (ip), vehicle: saline): 99 % of control

CCN(CC)CCOc1ccc(N(CCCl)CCCl)cc1
T/C (dose: 3.13 mg/kg/injection, schedule: Q04DX003 (ip), vehicle: Klucel (hydroxypropylcellulose) (HPC)): 117 % of control | T/C (dose: 12.5 mg/kg/injection, schedule: Q04DX003 (ip), vehicle: Klucel (hydroxypropylcellulose) (HPC)): 153 % of control and 168 % of control | T/C (dose: 25.0 mg/kg/injection, schedule: Q04DX003 (ip), vehicle: Klucel (hydroxypropylcellulose) (HPC)): 90 % of control

O=C(O)C(C1CC(Cl)=NO1)N1C(=O)c2ccccc2C1=O (stereo not drawn)
T/C (dose: 6.2 mg/kg/injection, schedule: Q04DX003 (ip), vehicle: other): 101 % of control | T/C (dose: 12.5 mg/kg/injection, schedule: Q04DX003 (ip), vehicle: other): 100 % of control | T/C (dose: 25.0 mg/kg/injection, schedule: Q04DX003 (ip), vehicle: other): 105 % of control | T/C (dose: 50.0 mg/kg/injection, schedule: Q04DX003 (ip), vehicle: other): 99 % of control | T/C (dose: 100.0 mg/kg/injection, schedule: Q04DX003 (ip), vehicle: other): 101 % of control | T/C (dose: 200.0 mg/kg/injection, schedule: Q04DX003 (ip), vehicle: other): 99 % of control

COc1ccc(/C=C/C2=C(C(=O)O)CCCO2)cc1
T/C [14]: 103 % of control | T/C [15]: 100 % of control | T/C [16]: 90 % of control

CCO/C=C1/N=C(c2ccccc2Cl)OC1=O
T/C [17]: 106 % of control | T/C [12]: 118 % of control | T/C [13]: 98 % of control

CCn1cc(C(=O)NC(C)C(=O)NC(C)P(=O)(O)O)c(=O)c2ccc(C)nc21 (stereo not drawn)
T/C [14]: 101 % of control | T/C [15]: 102 % of control | T/C [16]: 101 % of control

Cc1nn(C(=O)c2ccncc2)c(C)c1N=Nc1ccc(Cl)cc1
T/C (dose: 50.0 mg/kg/injection, schedule: Q01DX009 (ip), vehicle: saline): 99 % of control | T/C (dose: 100.0 mg/kg/injection, schedule: Q01DX009 (ip), vehicle: saline): 91 % of control | T/C (dose: 200.0 mg/kg/injection, schedule: Q01DX009 (ip), vehicle: saline): 90 % of control

O=C(N/N=C/c1ccccc1Cl)c1cccnc1
T/C [17]: 90 % of control | T/C [12]: 93 % of control | T/C [13]: 89 % of control

Cc1c(C)[n+]([O-])c(-c2ccc(Cl)cc2)n1O
T/C [18]: 100 % of control | T/C [19]: 100 % of control | T/C [20]: 100 % of control

O=C(Nc1ccc(S(=O)(=O)Nc2nccs2)cc1)c1ccncc1
T/C [7]: 102 % of control | T/C [8]: 102 % of control | T/C [9]: 102 % of control

Cc1cc(Cl)ccc1OCC(C)OC(=O)NC(C)C (stereo not drawn)
T/C (dose: 50.0 mg/kg/injection, schedule: Q01DX009 (ip), vehicle: Klucel (hydroxypropylcellulose) (HPC)): 106 % of control | T/C (dose: 100.0 mg/kg/injection, schedule: Q01DX009 (ip), vehicle: Klucel (hydroxypropylcellulose) (HPC)): 97 % of control | T/C (dose: 200.0 mg/kg/injection, schedule: Q01DX009 (ip), vehicle: Klucel (hydroxypropylcellulose) (HPC)): 101 % of control

C=CC(=NC(C)(C)C)Nc1ccccc1C
T/C (dose: 0.79 mg/kg/injection, schedule: Q01DX009 (ip), vehicle: saline): 99 % of control and 103 % of control and 90 % of control | T/C (dose: 1.56 mg/kg/injection, schedule: Q01DX009 (ip), vehicle: saline): 101 % of control and 89 % of control | T/C (dose: 12.5 mg/kg/injection, schedule: Q01DX009 (ip), vehicle: saline): 99 % of control

Cc1ccc(NN=O)nc1
T/C [10]: 151 % of control and 152 % of control | T/C [11]: 153 % of control and 183 % of control

CN(C)C(=S)/N=c1\ss/c(=N/C(=S)N(C)C)n1-c1ccc([N+](=O)[O-])cc1
T/C (dose: 6.25 mg/kg/injection, schedule: Q01DX009 (ip), vehicle: saline with Tween-80): 102 % of control | T/C (dose: 12.5 mg/kg/injection, schedule: Q01DX009 (ip), vehicle: saline with Tween-80): 103 % of control | T/C (dose: 25.0 mg/kg/injection, schedule: Q01DX009 (ip), vehicle: saline with Tween-80): 103 % of control

COC(=O)c1cc(-c2ccc([N+](=O)[O-])cc2)n2c(N)nnc2n1
T/C [17]: 92 % of control | T/C [12]: 86 % of control

CCC1(CC)C(=O)ON(C(C)(C)N2OC(=O)C(CC)(CC)C2=O)C1=O
T/C [1]: 102 % of control | T/C [2]: 104 % of control | T/C [3]: 96 % of control

CCCCC1(C2c3ccccc3Oc3ccccc32)C(=O)N(c2ccccc2)N(c2ccccc2)C1=O
T/C [17]: 98 % of control | T/C [12]: 93 % of control | T/C [13]: 90 % of control

c1ccc2nc(NCCSSCCNc3cnc4ccccc4n3)cnc2c1
T/C [19]: 86 % of control | T/C [20]: 86 % of control | T/C (dose: 400.0 mg/kg/injection, schedule: Q01DX009 (ip), vehicle: saline with Tween-80): 86 % of control

CNC1c2ccccc2CCC1O (stereo not drawn)
T/C (dose: 100.0 mg/kg/injection, schedule: Q04DX002 (ip), vehicle: Klucel (hydroxypropylcellulose) (HPC)): 100 % of control | T/C (dose: 200.0 mg/kg/injection, schedule: Q04DX002 (ip), vehicle: Klucel (hydroxypropylcellulose) (HPC)): 96 % of control

Clc1cccn2cnnc12
T/C [18]: 98 % of control | T/C [19]: 103 % of control | T/C [20]: 100 % of control

COC(c1ccccc1)C(Br)c1ccccc1 (stereo not drawn)
T/C [4]: 104 % of control | T/C [5]: 95 % of control | T/C [6]: 104 % of control

CN1CCC2(CC1)C(C#N)C(=O)NC(=O)C2C#N (stereo not drawn)
T/C [7]: 105 % of control | T/C [8]: 100 % of control | T/C [9]: 100 % of control

Source: PubChem BioAssay AID330 (DTP/NCI, 2004)
